Data: patent publication EP0627444B1, “Monoacetic derivatives of the peptides leu-phe-ala and ala-leu-phe and their use in identifying and destroying tumour cells, viruses and virus-carrying cells” (priority 1993, dated 1998)
Several values for one entry are separate records, joined by “and”; a condition that tells them apart may be missing. Equal values may be shown once.

Key:
[1] = tested on: NK lymphocytes; assay: Activation test for NK lymphocytes assessed by means of rosette formation; assay type: in vivo, female mice belonging to BALB/C strain; conditions: Lot B controls, muramyl dipeptide only
Experimental: In carrying out such a test, all six isomers of the monoacetic derivative of the peptide were used, individually, both in normoergic (germ free) animals (lot A) and in animals previously immunized with muramyl dipeptide (lot B). The method and results of the test are hereinafter reported.
A number of groups, each consisting of 18 randomized animals, were inoculated with 0.1 ml/each of normal saline solution (controls) or 0.1 ml/each of monoacetic peptide in its 6 possible isomers dissolved in normal saline solution. The 17.5 mg/kg dose administered to the animals corresponds to 1/20 of the LD found with respect to these peptides.
Treated and control animals were sacrificed in groups of 6 on the 11th, 13th and 18th day after the inoculation of the normal saline solution or of the peptide. […]
Cell survival was assessed by means of the supravital staining technique with trypan blue. […]
FCS, at a 10% ratio, was added to the above mentioned suspension. Following 5 minutes of incubation at +37 °C and 5 minutes of centrifugation at 200 rpm, the samples were incubated at +4 °C for 18 hours prior to reading the results.
The lymphocytes encircled by 3 or more ram's erythrocytes were considered as rosette-forming lymphocytes. The significance was assessed by means of Student's "T" test. […]

[2] = tested on: Lewis Lung Carcinoma; assay: Lewis Lung Carcinoma, third set of experiments (with MDP); assay type: in vivo, female mice C57BI/6
Experimental: The tested compound was Ala-Leu-Phe = P1 (SF080) (17.5 mg/kg) in the model of tumour disease caused by Lewis Lung Carcinoma. The compound was also evaluated in combination with muramyl dipeptide (MDP).
Animals: female mice C57BI/6 (Charles River) the average weight of which was 20g were used. The experiment involved overall 48 mice.
The tumour cells of LLC were obtained from the fourth passage of tumour cells. The total number of cells was 2 x 10^5 in 0.1 ml of Hanks solution. The cells were injected subcutaneously into axillary region.
The peptide P1 was administered i.p. in suspension with propylenglycol (0.1 ml/50 ml) in physiological solution. […] The same way of administration as in tested animals (i.p.) was used.
The animals were divided into 4 groups each having 12 mice. In groups 2 and 3 MDP was administered subcutaneously in a dose of 100 µg (0.5 ml physiol. solution per mouse). The protocol of the test is as follows.
The animals in all groups were observed daily for tumour growth. In the control group the tumour growth was so rapid and the animals were in such a condition that the experiment was terminated after 18 days from the administration of tumour cells. Mice were sacrificed and tumour mass was excised and weighed. Both lobes of lungs were inspected for the presence of metastases.
The following parameters have been evaluated in this experiment: • a) the percentage of animals not having the tumour • b) the average weight of the tumour • c) the percentage of animals with metastases in lungs • d) the average number of metastases in case of positive animals
Statistical analysis was performed by the method of one factorial analysis of variance (ANOVA), Dunnett's test and chi-square test. […]

[3] = group 2: MDP 100 µg s.c. day -3, day 18

muramyl dipeptide [MDP]
rosette formation after preventive immunization [1]: significant decrement
Weight of tumours, AVG [2, 3]: 3.24 g
Weight of tumours, SUM [2, 3]: 29.16 g
average number of metastases, AVG [2, 3]: 1
metastase free animals [2, 3]: 64%
number of metastases, SUM [2, 3]: 9
tumour-free animals [2, 3]: 18%
number of metastases (meta) ([2]; individual animals, lungs, group 2: MDP 100 µg s.c. day -3, day 18): 1 and 3 (2×) and 0 (7×) and 2
Weight of tumours ([2]; individual animals, group 2: MDP 100 µg subcutaneously day -3, 18 days after tumour cells): 4.88 g and 4.48 g and 1.97 g and 3.13 g and 0 g (2×) and 3.57 g and 2.72 g and 1.81 g and 4.11 g and 2.49 g
